Test results from ChEMBL document CHEMBL1201862, “PubChem BioAssay data set” (2004).
Where “and” joins values, the source holds several entries; their conditions need not be identical. Equal entries are not always repeated.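 The compound was tested at five concentrations on cells cultured in 96-well plates, with a 48-hour exposure period. Here, GI50 denotes the concentration required for 50% inhibition of growth.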 Calls of active or inactive are those of the source. Rule as the data show it: active = GI50 up to about 1.1 µM and inactive = higher.

Experiments:
Assay in all cases: NCI-60 cell line screen, 48 h
[1] = test system: ACHN
[2] = test system: SNB-75
[3] = test system: SK-OV-3
[4] = test system: T47D
[5] = test system: OVCAR-3
[6] = test system: TK-10
[7] = test system: OVCAR-5
[8] = test system: UACC-62
[9] = test system: OVCAR-4
[10] = test system: UACC-257
[11] = test system: CAKI-1
[12] = test system: HCT-116
[13] = test system: HT-29
[14] = test system: SK-MEL-5
[15] = test system: HOP-62
[16] = test system: Malme-3M
[17] = test system: EKVX
[18] = test system: SW-620
[19] = test system: M14
[20] = test system: LOX IMVI

SMILES	GI50 [1]	GI50 [2]	GI50 [3]	GI50 [4]	GI50 [5]	GI50 [6]	GI50 [7]	GI50 [8]	GI50 [9]	GI50 [10]	GI50 [11]	GI50 [12]	GI50 [13]	GI50 [14]	GI50 [15]	GI50 [16]	GI50 [17]	GI50 [18]	GI50 [19]	GI50 [20]
NC(=O)C(Nc1ccc(Cl)cc1)c1cc2cc(Br)ccc2nc1Cl (stereo not given)	> 50 µM (inactive)	> 50 µM (inactive)	> 50 µM (inactive)	37.2 µM (inactive)	> 50 µM (inactive)	19.9 µM (inactive)	> 50 µM (inactive)	> 50 µM (inactive)	> 50 µM (inactive)	> 50 µM (inactive)	> 50 µM (inactive)	> 50 µM (inactive)	> 50 µM (inactive)	42.2 µM (inactive)	> 50 µM (inactive)	> 50 µM (inactive)	18.6 µM (inactive)	34.8 µM (inactive)	> 50 µM (inactive)	> 50 µM (inactive)
COc1ccc2c(c1OC)C[C@@H]1c3c(cc4c(c3-2)OCO4)CCN1C	27.5 µM (inactive)	17.1 µM (inactive)	23.3 µM (inactive)	28.8 µM (inactive)	41.1 µM (inactive)	25 µM (inactive)	59 µM (inactive)	15.2 µM (inactive)	25.4 µM (inactive)	20 µM (inactive)	31.2 µM (inactive)	20.7 µM (inactive)	15.8 µM (inactive)	16.7 µM (inactive)	72.8 µM (inactive)	30.6 µM (inactive)	20.7 µM (inactive)	29.8 µM (inactive)	25.9 µM (inactive)	15.3 µM (inactive)
CCCCCCCC(CC(=O)NC(CO)C(=O)NC(CO)CC(C)C)OC(=O)CC(CCCCCCC)OC(=O)CC(CCCCCCC)OC1OC(C)C(O)C(OC2OC(C)C(O)C(O)C2O)C1O (stereo not given)	12.2 µM (inactive)	10.5 µM (inactive)	17.6 µM (inactive)	10.9 µM (inactive)	13.9 µM (inactive)	16.5 µM (inactive)	13.1 µM (inactive)	14.1 µM (inactive)	12.6 µM (inactive)	12.3 µM (inactive)	18.4 µM (inactive)	7.53 µM (inactive)	9.16 µM (inactive)	7.83 µM (inactive)	18.9 µM (inactive)	9.66 µM (inactive)	24.6 µM (inactive)	15.7 µM (inactive)	5.05 µM (inactive)	5.28 µM (inactive)
c1ccc2c(c1)N=c1ccccc1=P21c2ccccc2Nc2ccccc21	2.4 µM (inactive)	0.246 µM (active)	0.265 µM (active)	0.192 µM (active)	0.301 µM (active)	0.998 µM (active)	0.421 µM (active)	0.611 µM (active)	0.601 µM (active)	0.39 µM (active)	2.4 µM (inactive)	0.242 µM (active)	0.0724 µM (active)	0.188 µM (active)	0.908 µM (active)	0.242 µM (active)	5.04 µM (inactive)	0.405 µM (active)	0.518 µM (active)	0.953 µM (active)
CCCCNC(=O)OCCN=c1c2ccccc2ccc2ccccc12	> 100 µM (inactive)	> 100 µM (inactive)	> 100 µM (inactive)	75 µM (inactive)	> 100 µM (inactive)	> 100 µM (inactive)	> 100 µM (inactive)	> 100 µM (inactive)	> 100 µM (inactive)	> 100 µM (inactive)	> 100 µM (inactive)	> 100 µM (inactive)	> 100 µM (inactive)	> 100 µM (inactive)	> 100 µM (inactive)	> 100 µM (inactive)	> 100 µM (inactive)	> 100 µM (inactive)	> 100 µM (inactive)	> 100 µM (inactive)
COc1ccc(-c2c(C#N)c(N)n(C3OC(CO)C(O)C(O)C3O)c(=S)c2C#N)cc1 (stereo not given)	87.9 µM (inactive) and 97.3 µM (inactive)	> 100 µM (inactive)	> 100 µM (inactive)	> 100 µM (inactive) and 93.3 µM (inactive)	> 100 µM (inactive) and 97.7 µM (inactive)	> 100 µM (inactive)	> 100 µM (inactive)	> 100 µM (inactive)	> 100 µM (inactive) and 67.9 µM (inactive)	> 100 µM (inactive)	> 100 µM (inactive)	> 100 µM (inactive)	> 100 µM (inactive)	> 100 µM (inactive) and 74 µM (inactive)	> 100 µM (inactive) and 51.9 µM (inactive)	> 100 µM (inactive)	66.2 µM (inactive)	> 100 µM (inactive) and 73.1 µM (inactive)	> 100 µM (inactive)	> 100 µM (inactive) and 77.4 µM (inactive)
c1cc(-c2sc(-c3ccncc3)c(-c3ccncc3)c2-c2ccncc2)ccn1	14.8 µM (inactive)	14 µM (inactive)	20.9 µM (inactive)	32.4 µM (inactive)	16.9 µM (inactive)	15.2 µM (inactive)	19.7 µM (inactive)	14.1 µM (inactive)	33 µM (inactive)	17 µM (inactive)	36.9 µM (inactive)	12.9 µM (inactive)	13.6 µM (inactive)	14.7 µM (inactive)	18.5 µM (inactive)	17.7 µM (inactive)	13.1 µM (inactive)	17 µM (inactive)	16.5 µM (inactive)	13.6 µM (inactive)
